Key:
IKZF3 (Aiolos) = test: IKZF3 reporter degradation assay (HEK 293T IKZF3-mNeonGreen reporter cell line); format: cell-based, human; conditions: HEK 293T IKZF3 reporter cells, 24 hour incubation
Text: (§1) Polycistronic plasmids were constructed for the mammalian expression of fluorescent reporter fusions of human transcription factors IKZF1 (Ikaros), IKZF2 (Helios), and IKZF3 (Aiolos). The respective protein sequences had their C-terminal end joined to a GGGGS linker repeated three times followed by mNeonGreen, P2A sequence, and mScarlet. The DNA sequences of the open reading frames are as follows:
(§2) IKZF1, IKZF2, and IKZF3 constructs were cloned into the UCOE Hygromycin expression vectors (Millipore Sigma). Reporter constructs were transfected using cationic lipid reagents into adherent HEK 293T cells and stable integrants were selected by treatment with 200 μg/mL hygromycin B. Clonal populations were obtained from the population of stable integrants either by limiting dilution or fluorescence activated cell sorting.
(§3) The clonal stable cell lines were maintained under constant 200 μg/mL hygromycin B selection while being passaged for use in the degradation assays. […] The fluorescence intensity of the IKZF1/2/3-mNeonGreen (FITC channel) and mScarlet (PE channel) reporters were routinely analyzed by flow cytometry to confirm consistent expression levels between experiments.
(§4) The IKZF1/IKZF2/IKZF3 degradation assays were carried out by harvesting the HEK 293T reporter cell lines and resuspending the cells in media formulated for reduced background fluorescence (FluoroBrite; Thermo Fisher). The respective cell lines were seeded at a density of 4000 cells/well into black-walled 384-well optical grade assay tissue culture plates. The cells were incubated overnight at 37° C. to allow for attachment to the assay plate. Dilutions of the compounds were prepared in DMSO from 10 mM compound stocks. The assay plates were treated with appropriate concentrations of the compounds by dispensing the DMSO dilutions in quadruplicate wells with an upper limit of 0.5% final DMSO.
(§5) After 24 hour incubation with the compounds, the assay plates were imaged on an ImageXpress Pico microscopy system (cells maintained at 37° C. during imaging) to obtain the fluorescent readouts. The assay plates were imaged in the FITC and Tetramethylrhodamine (TRITC) channels to obtain the mNeonGreen fluorescence intensity (reporter degradation data) and mScarlet fluorescence intensity (for cell segmentation). 293T-IKZF1 and 293T-IKZF3 reporter cell lines were imaged with exposures of 500 milliseconds (ms) for both FITC and TRITC channels, while the 293T-IKZF2 reporter cell line was imaged with exposures of 1000 ms for FITC and 1250 ms for TRITC. The resulting data was analyzed with Cell Reporter Xpress software using the 2-channel cell scoring analysis with a “percent positive” readout. The TRITC channel was selected for the “nuclei” segmentation with a threshold of 20 while the FITC channel was selected for the “Marker 1” segmentation and a threshold of 100 for the IKZF1 and IKZF3 reporter lines. […] The minimum segmentation width was set to 6 micrometers and the maximum segmentation width was set to 15 micrometers for all cell lines. The DCs calculations were determined by regression to best fit four-parameter logistic curves using GraphPad Prism.

IKZF1 (Ikaros) = test: IKZF1 reporter degradation assay (HEK 293T IKZF1-mNeonGreen reporter cell line); format: cell-based, human; conditions: HEK 293T IKZF1 reporter cells, 24 hour incubation
Text: as §1, §2, §3, §4, §5

GSPT1 = GSPT1 (Homo sapiens (Human), UniProt P15170+Q96SW2); test: GSPT1 reporter degradation assay (HEK293 hGSPT1 HiBiT-tagged cells); format: cell-based; conditions: 24 hour incubation
Sequence of GSPT1 (P15170 whole entry): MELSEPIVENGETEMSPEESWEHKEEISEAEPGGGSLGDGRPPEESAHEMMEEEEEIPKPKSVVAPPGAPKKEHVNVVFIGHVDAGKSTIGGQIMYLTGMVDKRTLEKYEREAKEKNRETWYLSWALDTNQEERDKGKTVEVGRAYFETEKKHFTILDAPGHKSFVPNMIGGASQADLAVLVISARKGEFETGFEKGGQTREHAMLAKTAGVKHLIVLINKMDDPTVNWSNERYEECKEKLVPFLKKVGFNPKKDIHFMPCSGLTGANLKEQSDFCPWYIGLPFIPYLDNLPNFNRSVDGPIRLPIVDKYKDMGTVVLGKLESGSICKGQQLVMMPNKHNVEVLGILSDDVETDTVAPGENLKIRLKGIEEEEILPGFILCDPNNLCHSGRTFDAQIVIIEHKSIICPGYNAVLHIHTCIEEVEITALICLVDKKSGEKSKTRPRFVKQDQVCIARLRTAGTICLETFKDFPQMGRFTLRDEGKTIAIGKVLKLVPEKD
Sequence of GSPT1 (Q96SW2 whole entry): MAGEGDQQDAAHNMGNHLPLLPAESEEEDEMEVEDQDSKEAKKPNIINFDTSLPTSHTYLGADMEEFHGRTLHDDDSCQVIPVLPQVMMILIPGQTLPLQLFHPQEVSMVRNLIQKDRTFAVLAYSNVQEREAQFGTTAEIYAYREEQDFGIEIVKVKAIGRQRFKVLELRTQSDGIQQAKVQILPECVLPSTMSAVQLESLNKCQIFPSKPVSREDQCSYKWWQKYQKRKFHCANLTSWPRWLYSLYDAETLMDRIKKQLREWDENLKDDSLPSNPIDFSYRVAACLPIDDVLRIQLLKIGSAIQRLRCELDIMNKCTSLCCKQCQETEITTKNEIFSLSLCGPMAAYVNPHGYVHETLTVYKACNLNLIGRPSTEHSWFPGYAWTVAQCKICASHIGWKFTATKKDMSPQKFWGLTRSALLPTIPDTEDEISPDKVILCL
Sequence of GSPT1 (Q16531 whole entry partner): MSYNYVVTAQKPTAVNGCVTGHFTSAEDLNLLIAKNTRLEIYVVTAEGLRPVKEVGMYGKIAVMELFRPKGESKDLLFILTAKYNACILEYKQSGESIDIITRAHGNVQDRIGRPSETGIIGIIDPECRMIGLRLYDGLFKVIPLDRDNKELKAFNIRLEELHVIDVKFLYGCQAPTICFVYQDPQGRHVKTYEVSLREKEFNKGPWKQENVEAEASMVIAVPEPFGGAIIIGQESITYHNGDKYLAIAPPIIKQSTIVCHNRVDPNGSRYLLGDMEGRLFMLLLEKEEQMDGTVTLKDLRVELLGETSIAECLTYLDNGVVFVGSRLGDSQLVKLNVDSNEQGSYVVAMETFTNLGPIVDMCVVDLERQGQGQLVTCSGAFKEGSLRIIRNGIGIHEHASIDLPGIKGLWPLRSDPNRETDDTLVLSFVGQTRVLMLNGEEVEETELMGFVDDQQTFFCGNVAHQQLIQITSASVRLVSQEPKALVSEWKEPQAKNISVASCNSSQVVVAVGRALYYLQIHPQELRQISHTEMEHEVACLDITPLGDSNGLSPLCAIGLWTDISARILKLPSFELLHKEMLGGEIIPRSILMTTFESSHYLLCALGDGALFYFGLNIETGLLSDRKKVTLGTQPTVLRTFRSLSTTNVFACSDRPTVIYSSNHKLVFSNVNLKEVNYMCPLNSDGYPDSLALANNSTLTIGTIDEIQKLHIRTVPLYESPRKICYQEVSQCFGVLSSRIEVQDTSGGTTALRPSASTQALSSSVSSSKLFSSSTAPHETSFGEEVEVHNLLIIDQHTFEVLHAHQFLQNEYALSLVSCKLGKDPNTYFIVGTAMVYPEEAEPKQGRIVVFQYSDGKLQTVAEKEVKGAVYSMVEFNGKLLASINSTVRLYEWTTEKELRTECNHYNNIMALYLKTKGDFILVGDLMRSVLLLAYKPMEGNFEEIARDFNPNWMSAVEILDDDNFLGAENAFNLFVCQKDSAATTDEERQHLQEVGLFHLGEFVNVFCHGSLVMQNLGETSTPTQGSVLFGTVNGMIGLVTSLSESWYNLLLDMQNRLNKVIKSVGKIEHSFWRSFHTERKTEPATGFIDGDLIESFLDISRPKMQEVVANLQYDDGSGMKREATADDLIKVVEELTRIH
Method: HEK293_hGSPT1_HiBiT-tagged cells were generated using CRISPR-Cas12a technology. Briefly, ˜400,000 HEK293 cells were transiently co-transfected with precomplexed ribonuclear proteins (RNPs) consisting of 80 pmol of crRNA (IDT), 62 pmol of Cas12a protein (IDT), 3 μg of ssODN donor (IDT; AltR® modifications), 78 pmol of electroporation enhancer (IDT), and 200 ng of pMaxGFP (Lonza). The transfection was performed via nucleofection (Lonza, 4D-Nucleofector X-unit) using solution P3 and program CM-130 in a (20 μL) cuvette. Five days post-nucleofection, cells were single-cell-sorted for GFP+(transfected) cells by FACs in 96-well plates and clonally selected. Clones were screened and verified for the desired modification via targeted deep sequencing using gene-specific primers with partial Illumina adapter overhangs as previously described. In brief, clonal cell pellets were harvested, lysed, and used to generate gene-specific amplicons with partial Illumina adapters in PCR #1. Amplicons were indexed in PCR #2 and pooled with other targeted amplicons for other loci to create sequence diversity. Additionally, 10% PhiX sequencing control V3 (Illumina) was added to the pooled amplicon library prior to running the sample on a Miseq Sequencer System (Illumina) to generate paired 2×250 bp reads. Samples were demultiplexed using the index sequences, fastq files were generated, and NGS analysis was performed using CRIS.py. Final clones were authenticated using the PowerPlex fusion system (Promega) and tested negative for mycoplasma by the MycoAlert™Plus mycoplasma detection kit (Lonza).
Editing construct sequences and screening primers are outlined below (sequence from 5′ to 3′). hGSPT1Cas12acrRNA, CAGE635.GSPT1.g1: […] (SEQ ID NO: 4); CAGE635.g1.anti.ssODN: ttcctcacagtattgtgcagggtcatcaagaaaatgctta[…] CAGCCGCTCACgtcCttctctggaaccagtttcagaacttttccaattgcaatggtcttacctagaaatgaaattttaa (HiBiT tag and silent blocking modifications to prevent Cas12a recutting after integration are in upper case) (SEQ ID NO: 5); CAGE635.hGSPT1.DS.F: […] (SEQ ID NO: 6); CAGE635.hGSPT1.DS.R: GTGAA GTAGGCTTCTGCAGTC (SEQ ID NO: 7).
The GSPT1 degradation assay was carried out by harvesting the HEK 293T reporter cell lines and resuspending the cells in media formulated for reduced background fluorescence (FluoroBrite; Thermo Fisher). The respective cell lines were seeded at a density of 8,000 cells/well into white-opaque 384-well optical grade assay tissue culture plates (Greiner 781080-20). The cells were incubated overnight at 37° C. to allow for attachment to the assay plate. Dilutions of the compounds were prepared in DMSO from 10 mM compound stocks. Test compounds were added in a 10-point dilution series (typically 10 μM to […]) using a TECAN D300e Digital Dispenser with an upper limit of 0.5% final DMSO. Plates were centrifuged at 320×g for 2 minutes at room temperature, and subsequently incubated at 37° C.
After 24 hour incubation with the compounds, the plates were allowed to cool to room temperature for 10 minutes. 30 μL of HiBiT lytic buffer+1:50 HiBiT substrate Solution were added to each well. Plates were centrifuged at 320×g for 2 minutes at room temperature and then incubated with shaking at room temperature for 10 minutes covered with foil. Plates were read on a CLARIOstar microplate reader (BMG LabTech), measuring at 450 nm (donor emission) and 610 nm or 630 nm (acceptor emission). The DC50 values were determined by regression to best fit four-parameter logistic curves using GraphPad Prism.

IKZF2 (Helios) = test: IKZF2 reporter degradation assay (HEK 293T IKZF2-mNeonGreen reporter cell line); format: cell-based, human; conditions: HEK 293T IKZF2 reporter cells, 24 hour incubation
How it was run: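 HEK 293T lines stably expressing each IKZF-GGGGS×3-mNeonGreen-P2A-mScarlet reporter, 4000 cells/well in FluoroBrite medium, treated with compound (≤0.5% DMSO) for 24 h at 37 °C. Imaging measured percent mNeonGreen-positive cells, with mScarlet used for segmentation; DC50 from four-parameter logistic fit.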

DC50 (IKZF3 (Aiolos)): > 30 µM
DC50 (IKZF1 (Ikaros)): > 30 µM
DC50 (GSPT1): > 30 µM
DC50 (IKZF2 (Helios)): 0.005 µM
SMILES: O=C1CCC(N2Cc3cc(O[C@H]4CCCC[C@@H]4N4CC(c5ccc(F)c(F)c5)C4)ccc3C2=O)C(=O)N1 (stereo partly drawn) [Compound 23, 3-(5-(((1S,2S)-2-(3-(3,4-difluorophenyl)azetidin-1-yl)cyclohexyl)oxy)-1-oxoisoindolin-2-yl)piperidine-2,6-dione]
IKZF2 % Degradation @ 1 μM (IKZF2 (Helios); 1 μM compound): 79.2%

Reference: patent US20240246935A1 (Plexium, Inc., priority 2021, published 2024)
